This is an account of results in US11802120B2, “Fused cyclic urea derivatives as CRHR2 antagonist” (RaQualia Pharma Inc., priority 2018, dated 2023).

Assay type in all cases: cell-based
One assay has as its target T1, CRHR2 (Homo sapiens, UniProt Q13324).
T1 sequence (Q13324 1-411): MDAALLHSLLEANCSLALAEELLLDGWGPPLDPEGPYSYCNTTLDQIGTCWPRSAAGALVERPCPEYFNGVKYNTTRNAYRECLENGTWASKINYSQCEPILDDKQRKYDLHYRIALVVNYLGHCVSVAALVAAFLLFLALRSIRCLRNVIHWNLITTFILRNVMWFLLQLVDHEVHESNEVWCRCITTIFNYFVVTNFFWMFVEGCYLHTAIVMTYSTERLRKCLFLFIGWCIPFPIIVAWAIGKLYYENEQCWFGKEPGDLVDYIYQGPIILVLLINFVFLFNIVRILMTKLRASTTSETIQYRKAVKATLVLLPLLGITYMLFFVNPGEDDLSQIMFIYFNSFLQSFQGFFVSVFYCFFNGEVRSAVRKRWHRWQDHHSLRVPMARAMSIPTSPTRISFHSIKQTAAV
Briefly: CRHR2 antagonistic activity (inhibitory activity against CRHR2).

Another assay concerns the target T2, human CRHR1-beta (Homo sapiens, UniProt P34998).
T2 sequence (P34998 24-444 isoform P34998-1 limits assumed): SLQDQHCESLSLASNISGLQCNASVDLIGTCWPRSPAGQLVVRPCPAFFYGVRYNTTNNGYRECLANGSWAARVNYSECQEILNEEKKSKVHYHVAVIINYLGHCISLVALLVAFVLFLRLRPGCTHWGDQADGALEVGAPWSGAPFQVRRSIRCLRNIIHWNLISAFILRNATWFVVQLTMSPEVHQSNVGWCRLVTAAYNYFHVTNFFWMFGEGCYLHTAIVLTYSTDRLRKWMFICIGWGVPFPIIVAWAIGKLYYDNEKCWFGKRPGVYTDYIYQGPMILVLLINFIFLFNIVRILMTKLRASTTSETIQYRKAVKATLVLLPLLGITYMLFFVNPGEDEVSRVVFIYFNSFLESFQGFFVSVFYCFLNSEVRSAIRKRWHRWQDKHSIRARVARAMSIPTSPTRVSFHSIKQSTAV
The experiment in a line: cAMP functional assay for human CRHR1 (LANCE Ultra cAMP, TR-FRET). As to conditions: CHO-K1 cells expressing human CRHR1-beta, agonist CRF at EC80, cAMP; read-out: IC50 against CRHR1. How it is done:
cAMP functional assay for human CRHR1 and CRHR2
The ability of the compounds of this invention to inhibit either CRHR2 or CRHR1 is assessed by 3′,5′-cyclic adenosine monophosphate (cAMP) production in cells using the LANCE Ultra cAMP assay kit (ParkinElmer), which are designed based on the homogeneous time-resolved fluorescence resonance energy transfer (TR-FRET) immunoassay.
CHO-K1 (Chinese hamster ovary) cells stably expressing either human CRHR2-alpha (DiscoveRX, Cat. 95-0048C2) or human CRHR1-beta (DiscoveRX, Cat. 95-0047C2) are grown in HAM's F12 media supplemented with 10% fetal bovine serum (FBS), 100 units/mL penicillin, 100 microg/mL hygromycin and 0.5 microg/mL geneticin at 37° C. in 5% CO2 humidified incubator to 80% confluence. After 7 hours starvation treatment in culture media containing 0.1% FBS, the cells are washed with Hanks balanced salt solution (HBSS) and cryopreserved.
For cAMP assay, frozen cells are thawed and washed with HBSS, followed by resuspended in assay buffer (HBSS containing 0.1% bovine serum albumin, 0.5 mM isobutylmethylxanthine and 5 mM Hepes, pH 7.4) at the appropriate concentration for the assay. The cell suspensions are plated on 384-well microplates (Greiner Bio-One) at a density of 4,000 cells per well. After preincubating the cells with various concentrations of the compounds for 30 min at 25° C., an assay buffer containing EC80 concentration of each agonist is added and the cells are incubated for 30 min at 25° C. Human urocortin2 (Peptide Institute) and CRF (Peptide Institute) are used as agonists for CRHR2 and CRHR1, respectively. For the termination of assay, europium-labeled cAMP tracer and ULight (registered trademark) dye labeled cAMP antibodies, both prepared with Lance-Ultra cAMP detection reagent (Perkin Elmer) are added in the plate and incubate for 60 min at 25° C. After incubation, TR-FRET signal is detected by EnVision plate reader (PerkinElmer). The IC50 values for compounds are calculated from dose-response curves by fitting the percent inhibition using XLfit (ID Business Solutions).

The target in the next assay is T3, human CRHR2-alpha (Homo sapiens, UniProt Q13324).
T3 sequence (Q13324 1-411): T1 sequence (Q13324 1-411)
Briefly: cAMP functional assay for human CRHR2 (LANCE Ultra cAMP, TR-FRET). As to conditions: CHO-K1 cells expressing human CRHR2-alpha, agonist human urocortin2 at EC80, cAMP; read-out: IC50 against CRHR2. In short, it runs like this:
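CHO-K1 stable lines; 4,000 cells/well; compound 30 min, 25° C; EC80 agonist (human urocortin2 → CRHR2, CRF → CRHR1) 30 min, 25° C; buffer HBSS/0.1% BSA/0.5 mM IBMX/5 mM Hepes pH 7.4; Eu-cAMP tracer + ULight antibody 60 min; TR-FRET read; IC50 from % inhibition curves.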

What is called IC50 is the point on the concentration scale where inhibition reaches its midpoint.

In turn, `Cc1ncc(Cl)cc1C(=O)N[C@H]1CC[C@H](Cn2c(=O)n(C3CCCCC3)c3ccccc32)CC1` [reference compound (A), reference compound] displayed an IC50 against CRHR2 of 3.1 µM. At CRHR2, `CCn1c(=O)n(C[C@H]2CC[C@H](NC(=O)c3cc(Cl)cnc3C)CC2)c2ccccc21` [Example 2.46, reference compound] displayed an IC50 of 3 µM.

Regarding `Cc1ncc(Cl)cc1C(=O)N[C@H]1CC[C@H](Cn2c(=O)n(-c3ccc(N(C)CCO)nc3)c3ccccc32)CC1` [Example 64, 5-chloro-N-((1r,4r)-4-((3-(6-((2-hydroxyethyl)(methyl)amino)pyridin-3-yl)-2-oxo-2,3-dihydro-1H-benzo[d]imidazol-1-yl)methyl)cyclohexyl)-2-methylnicotinamide], the results for the IC50 at human CRHR1-beta and on human CRHR2-alpha were less than 1 µM and less than 0.3 µM, respectively. Turning to `Cc1ncc(Cl)cc1C(=O)N[C@H]1CC[C@H](Cn2c(=O)n(-c3cnc4c(ccn4C)c3)c3ccccc32)CC1` [Example 148, 5-chloro-2-methyl-N-((1r,4r)-4-((3-(1-methyl-1H-pyrrolo [2,3-b]pyridin-5-yl)-2-oxo-2,3-dihydro-1H-benzo[d]imidazol-1-yl)methyl)cyclo-hexyl)nicotinamide], the figures for the IC50 against CRHR2 and on human CRHR2-alpha were 0.06 µM and less than 0.3 µM, respectively. Consider `Cc1ncc(Cl)cc1C(=O)N[C@H]1CC[C@H](Cn2c(=O)n(-c3ccc(OCCO)nc3)c3ccccc32)CC1` [Example 50, 5-chloro-N-((1r,4r)-4-((3-(6-(2-hydroxyethoxy)pyridin-3-yl)-2-oxo-2,3-dihydro-1H-benzo[d]imidazol-1-yl)methyl)cyclohexyl)-2-methylnicotinamide], for which the IC50 on human CRHR1-beta was less than 1 µM; at human CRHR2-alpha it was less than 0.3 µM. As for `COc1cc(-n2c(=O)n(C[C@H]3CC[C@H](NC(=O)c4cc(Cl)cnc4C)CC3)c3ccccc32)ccn1` [Example 45, 5-chloro-N-((1r,4r)-4-((3-(2-methoxypyridin-4-yl)-2-oxo-2,3-dihydro-1H-benzo[d]imidazol-1-yl)methyl)cyclohexyl)-2-methylnicotinamide], the values for the IC50 at human CRHR1-beta and at human CRHR2-alpha were less than 1 µM and less than 0.3 µM, respectively. For `Cc1ncc(Cl)cc1C(=O)N[C@H]1CC[C@H](Cn2c(=O)n(-c3ccc(N(C)C)nn3)c3ccccc32)CC1` [Example 67, 5-chloro-N-((1r,4r)-4-((3-(6-(dimethylamino)pyridazin-3-yl)-2-oxo-2,3-dihydro-1H-benzo[d]imidazol-1-yl)methyl)cyclohexyl)-2-methylnicotinamide] the same measures were less than 1 µM and less than 0.3 µM. On to `COc1ccc(-n2c(=O)n(C[C@H]3CC[C@H](NC(=O)c4cc(Cl)cnc4C)CC3)c3ccccc32)cc1` [Example 27, 5-chloro-N-((1r,4r)-4-((3-(4-methoxyphenyl)-2-oxo-2,3-dihydro-1H-benzo[d]imidazol-1-yl)methyl)cyclohexyl)-2-methylnicotinamide], for which the IC50 at human CRHR1-beta is less than 1 µM; at human CRHR2-alpha, less than 0.3 µM.

`Cc1ccc(-n2c(=O)n(C[C@H]3CC[C@H](NC(=O)c4cc(Cl)cnc4C)CC3)c3ccccc32)c(C)n1` [Example 32, 5-chloro-N-((1r,4r)-4-((3-(2,6-dimethylpyridin-3-yl)-2-oxo-2,3-dihydro-1H-benzo[d]imidazol-1-yl)methyl)cyclohexyl)-2-methylnicotinamide]: the figures for the IC50 at human CRHR1-beta and at human CRHR2-alpha were less than 1 µM and less than 0.3 µM, respectively. For `Cc1ncc(Cl)cc1C(=O)N[C@H]1CC[C@H](Cn2c(=O)n(-c3ccc(F)cc3)c3ccccc32)CC1` [Example 15, 5-chloro-N-((1r,4r)-4-((3-(4-fluorophenyl)-2-oxo-2,3-dihydro-1H-benzo[d]imidazol-1-yl)methyl)cyclohexyl)-2-methylnicotinamide] the same measures were less than 1 µM and less than 0.3 µM. The molecule `Cc1ncc(Cl)cc1C(=O)N[C@H]1CC[C@H](Cn2c(=O)n(C)c3ccccc32)CC1` [Example 2.50, reference compound] had an IC50 on CRHR2 of 13 µM. On to `Cc1ncc(Cl)cc1C(=O)N[C@H]1CC[C@H](Cn2c(=O)n(-c3ccc(N(C)CCCO)nc3)c3ccccc32)CC1` [Example 94, 5-chloro-N-((1r,4r)-4-((3-(6-((3-hydroxypropyl)(methyl)amino)pyridin-3-yl)-2-oxo-2,3-dihydro-1H-benzo[d]imidazol-1-yl)methyl)cyclo-hexyl)-2-methylnicotinamide], for which the IC50 on human CRHR1-beta was less than 1 µM; at human CRHR2-alpha, less than 0.3 µM. The molecule `Cc1ncc(Cl)cc1C(=O)N[C@H]1CC[C@H](Cn2c(=O)n(-c3ccccc3)c3ccccc32)CC1` [Example 1, 5-chloro-2-methyl-N-((1r,4r)-4-((2-oxo-3-phenyl-2,3-dihydro-1H-benzo[d]imidazol-1-yl)methyl)cyclohexyl)nicotinamide] gave an IC50 against CRHR2 of 0.39 µM.

Take `Cc1ncc(Cl)cc1C(=O)N[C@H]1CC[C@H](Cn2c(=O)n(-c3cccnc3)c3ccccc32)CC1` [Example 156, 5-chloro-2-methyl-N-((1r,4r)-4-((2-oxo-3-(pyridin-3-yl)-2,3-dihydro-1H-benzo[d]imidazol-1-yl)methyl)cyclo-hexyl)nicotinamide]: the results for the IC50 against CRHR2 and at human CRHR2-alpha were 0.28 µM and less than 0.3 µM, respectively. For `Cc1ncc(Cl)cc1C(=O)N[C@H]1CC[C@H](Cn2c(=O)n(Cc3ccccc3)c3ccccc32)CC1` [Example 2, N-((1r,4r)-4-((3-benzyl-2-oxo-2,3-dihydro-1H-benzo[d]imidazol-1-yl)methyl)cyclohexyl)-5-chloro-2-methylnicotinamide], in that order: 0.18 µM and less than 0.3 µM. For the molecule `Cc1ncc(Cl)cc1C(=O)N[C@H]1CC[C@H](Cn2c(=O)n(-c3ccc(C(N)=O)nc3)c3ccccc32)CC1` [Example 62, 5-(3-(((1r,4r)-4-(5-chloro-2-methylnicotinamido)cyclohexyl)methyl)-2-oxo-2,3-dihydro-1H-benzo[d]imidazol-1-yl)picolinamide], the figures for the IC50 on human CRHR1-beta and on human CRHR2-alpha were less than 1 µM and less than 0.3 µM, respectively.

In the case of `Cc1ccc(-n2c(=O)n(C[C@H]3CC[C@H](NC(=O)c4cc(Cl)cnc4C)CC3)c3ccccc32)cc1` [Example 25, 5-chloro-2-methyl-N-((1r,4r)-4-((2-oxo-3-(p-tolyl)-2,3-dihydro-1H-benzo[d]imidazol-1-yl)methyl)cyclohexyl)nicotinamide], the IC50 was less than 1 µM at human CRHR1-beta and less than 0.3 µM at human CRHR2-alpha. On to `Cc1ncc(Cl)cc1C(=O)N[C@H]1CC[C@H](Cn2c(=O)n(-c3cnc4[nH]ncc4c3)c3ccccc32)CC1` [Example 128, 5-chloro-2-methyl-N-((1r,4r)-4-((2-oxo-3-(1H-pyrazolo[3,4-b]pyridin-5-yl)-2,3-dihydro-1H-benzo[d]imidazol-1-yl)methyl)cyclohexyl)nicotinamide], for which the IC50 is 0.28 µM against CRHR2 and less than 0.3 µM at human CRHR2-alpha. `CNc1ccc(-n2c(=O)n(C[C@H]3CC[C@H](NC(=O)c4cc(Cl)cnc4C)CC3)c3ccccc32)cn1` [Example 91, 5-chloro-2-methyl-N-((1r,4r)-4-((3-(6-(methylamino)pyridin-3-yl)-2-oxo-2,3-dihydro-1H-benzo[d]imidazol-1-yl)methyl)cyclohexyl)nicotinamide]: the IC50 on human CRHR1-beta is less than 1 µM; on human CRHR2-alpha it was less than 0.3 µM.
